By EC50 is commonly meant the midpoint of the concentration-response curve. A low value points to higher potency in that assay. The Emax is the size of the effect at its maximum, as opposed to the concentration needed.

Among the data in ChEMBL document CHEMBL1147466 (Bioorg Med Chem Lett, 2004) are EC50 and Emax values, retold here.

A value given as a limit tells only on which side of the number the result lay.

Experiment [1] concerns the target T1, Lysophosphatidic acid receptor 1 (Homo sapiens, UniProt Q92633). Description: Agonistic activity against lysophosphatidic acid receptor 1 receptor using [35S]GTP-gamma-S as radioligand tested in vitro. It counts as functional.
Experiment [2] concerns the target T1, Lysophosphatidic acid receptor 1. Put plainly: Maximal efficacy to that of maximal efficacy of LPA against lysophosphatidic acid receptor 1 was determined in vitro.
Experiment [3] has as its target T2, Lysophosphatidic acid receptor 2 (Homo sapiens, UniProt Q9HBW0). Put plainly: Agonistic activity against lysophosphatidic acid receptor 2 using [35S]GTP-gamma-S as radioligand tested in vitro. In kind it is functional.
Experiment [4] concerns the target T2, Lysophosphatidic acid receptor 2. Put plainly: Maximal efficacy to that of maximal efficacy of LPA against lysophosphatidic acid receptor 2 was determined in vitro.
For experiment [5], the target named is T3, Lysophosphatidic acid receptor 3 (Homo sapiens, UniProt Q9UBY5).
T3 sequence (Q9UBY5 whole entry): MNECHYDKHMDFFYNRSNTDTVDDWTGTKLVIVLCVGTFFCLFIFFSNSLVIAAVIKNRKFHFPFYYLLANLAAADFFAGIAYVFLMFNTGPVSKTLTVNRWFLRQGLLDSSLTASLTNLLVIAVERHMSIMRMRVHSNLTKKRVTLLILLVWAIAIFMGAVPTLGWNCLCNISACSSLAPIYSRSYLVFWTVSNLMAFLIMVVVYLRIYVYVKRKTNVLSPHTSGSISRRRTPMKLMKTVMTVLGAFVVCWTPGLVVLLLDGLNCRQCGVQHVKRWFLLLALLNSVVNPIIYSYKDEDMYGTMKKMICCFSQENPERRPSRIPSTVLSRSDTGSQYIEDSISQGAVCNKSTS
Description: Agonistic activity against lysophosphatidic acid receptor 3 using [35S]GTP-gamma-S as radioligand tested in vitro. In kind it is functional. A general note: GTPγS is a poorly hydrolysed GTP analogue; its binding reports G protein activation.

Experiment [6] deals with T1, Lysophosphatidic acid receptor 1. Put plainly: Agonistic activity against lysophosphatidic acid receptor 1 using [35S]GTP-gamma-S as radioligand tested in vitro. It counts as functional.
Experiment [7] concerns the target T4, Lysophosphatidic acid receptor 3 (Homo sapiens) (UniProt Q9UBY5).
T4 sequence (whole entry): T3 sequence (Q9UBY5 whole entry)
Description: Maximal efficacy to that of maximal efficacy of LPA against lysophosphatidic acid receptor 3 was determined in vitro.

T1 sequence (Q92633 whole entry): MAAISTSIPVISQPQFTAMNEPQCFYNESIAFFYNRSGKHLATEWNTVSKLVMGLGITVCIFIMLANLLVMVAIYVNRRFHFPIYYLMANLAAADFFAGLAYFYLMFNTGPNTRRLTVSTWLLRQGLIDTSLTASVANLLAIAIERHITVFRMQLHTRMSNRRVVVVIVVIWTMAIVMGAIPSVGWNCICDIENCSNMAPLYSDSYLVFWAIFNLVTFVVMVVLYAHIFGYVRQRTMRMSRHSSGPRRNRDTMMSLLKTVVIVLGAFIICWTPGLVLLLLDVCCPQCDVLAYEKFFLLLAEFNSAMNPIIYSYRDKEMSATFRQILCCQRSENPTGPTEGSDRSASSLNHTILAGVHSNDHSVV
T2 sequence (Q9HBW0 whole entry): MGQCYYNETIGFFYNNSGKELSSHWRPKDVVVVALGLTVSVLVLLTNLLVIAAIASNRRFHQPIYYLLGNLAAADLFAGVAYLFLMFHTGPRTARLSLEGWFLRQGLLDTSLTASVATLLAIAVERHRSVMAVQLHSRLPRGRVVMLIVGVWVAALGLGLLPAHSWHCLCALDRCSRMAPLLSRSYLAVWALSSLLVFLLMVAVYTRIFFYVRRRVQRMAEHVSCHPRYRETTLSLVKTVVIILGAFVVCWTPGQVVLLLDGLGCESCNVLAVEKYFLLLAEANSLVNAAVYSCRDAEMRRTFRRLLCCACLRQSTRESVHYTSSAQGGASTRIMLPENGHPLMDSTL

Consider `CCCCCCCC/C=C\CCCCCCCC(=O)NCCC(O)P(=O)(O)O` (stereo unspecified), for which the EC50 in experiment [1] was 1230 nM; in experiment [3], 2070 nM; in experiment [5], greater than 5000 nM. The Emax in experiment [2] amounted to 80%; in experiment [4] it was 90%.
For `CCCCCCCC/C=C\CCCCCCCC(=O)NCCCP(=O)(O)O`, the EC50 is 1950 nM in experiment [6], greater than 5000 nM in experiment [3] and greater than 5000 nM in experiment [5]. Further, the Emax in experiment [2] was determined as 50%.
With `CCCCCCCC/C=C\CCCCCCCC(=O)OC[C@@H](O)COP(=O)(O)O` [LYSOPHOSPHATIDIC ACID], the EC50 in experiment [6] came to 17 nM. Further, the Emax in experiment [2], in experiment [4] and in experiment [7] was 100% each time.
For `CCCCCCCC/C=C\CCCCCCCC(=O)NCCC(=O)P(=O)(O)O`, the EC50 in experiment [6] is 221 nM; in experiment [3], 1090 nM; in experiment [5], greater than 5000 nM. The results for the Emax in experiment [2] and in experiment [4] were 80% and 90%, respectively.
Regarding `CCCCCCCC/C=C\CCCCCCCC(=O)NCCOP(=O)(O)O`, the Emax in experiment [2] stood at 100%; in experiment [4], 110%.
With `CCCCCCCC/C=C\CCCCCCCC(=O)NCCC(=O)P(O)(O)=S`, the concentration giving a half-maximal response (EC50) in experiment [6] was 40 nM; in experiment [3], 108 nM; in experiment [5], greater than 5000 nM. Further, the maximal effect (Emax) in experiment [2] amounted to 80%; in experiment [4], 46%.
Regarding `CCCCCCCC/C=C\CCCCCCCC(=O)NCCC(=S)P(=O)(O)O`, the EC50 in experiment [6] is 318 nM; in experiment [3] it was greater than 5000 nM; in experiment [5], greater than 5000 nM. The Emax in experiment [2] turned out to be 50%.
In the case of `CCCCCCCC/C=C\CCCCCCCC(=O)NCCC(O)(P(=O)(O)O)P(=O)(O)O`, the EC50 in experiment [6], in experiment [3] and in experiment [5] was greater than 5000 nM each time.
`CCCCCCCC/C=C\CCCCCCCC(=O)NCCC(F)P(=O)(O)O` (stereo unspecified): the values for the concentration giving a half-maximal response (EC50) in experiment [6], in experiment [3] and in experiment [5] were greater than 5000 nM, 1960 nM and greater than 5000 nM, respectively. The compound also came in with an Emax in experiment [4] of 100%.
